Laboratory results as given in ChEMBL document CHEMBL3608269, “Triazole-Linked Glycolipids Enhance the Susceptibility of MRSA to β-Lactam Antibiotics” (ACS Med Chem Lett, 2015).
≈ marks a conversion by molar mass, not a printed value. Calls of active or inactive are those of the source. The rule behind the calls is not given here.

Key:
Staphylococcus aureus [1] = test: Potentiation of oxacillin-mediated antibacterial activity against methicillin-resistant Staphylococcus aureus R308 clinical isolate assessed as decrease in oxacillin MIC at 32 ug/ml after 20 to 24 hrs by CLSI method relative to control; format: functional
Staphylococcus aureus [2] = test: Potentiation of oxacillin-mediated antibacterial activity against methicillin-resistant Staphylococcus aureus R16 clinical isolate at 32 ug/ml after 20 to 24 hrs by CLSI method; format: functional
MEF = test: Cytotoxicity against MEF assessed as cell viability at 8 to 128 ug/ml by MTS assay; format: cell-based; settings: mouse
Staphylococcus aureus [3] = test: Potentiation of cephazolin-mediated antibacterial activity against methicillin-resistant Staphylococcus aureus ATCC 43300 assessed as decrease in cephazolin MIC at 32 ug/ml by checkerboard method relative to control; format: functional
Staphylococcus aureus [4] = test: Potentiation of oxacillin-mediated antibacterial activity against methicillin-resistant Staphylococcus aureus ATCC 43300 at 32 ug/ml after 20 to 24 hrs by CLSI method; format: functional
Staphylococcus aureus [5] = test: Potentiation of penicillin-mediated antibacterial activity against methicillin-resistant Staphylococcus aureus ATCC 43300 assessed as decrease in penicillin MIC at 32 ug/ml by checkerboard method relative to control; format: functional
Staphylococcus aureus [6] = test: Potentiation of oxacillin-mediated antibacterial activity against methicillin-resistant Staphylococcus aureus R49 clinical isolate at 16 ug/ml after 20 to 24 hrs by CLSI method; format: functional
Staphylococcus aureus [7] = test: Downregulation of mecA mRNA expression in methicillin-resistant Staphylococcus aureus ATCC 43300 at 32 ug/ml after 4 hrs by RT-PCR analysis; format: functional, organism-based
Staphylococcus aureus [8] = test: Potentiation of oxacillin-mediated antibacterial activity against methicillin-resistant Staphylococcus aureus R304 clinical isolate assessed as decrease in oxacillin MIC at 32 ug/ml after 20 to 24 hrs by CLSI method relative to control; format: functional
Staphylococcus aureus [9] = test: Potentiation of oxacillin-mediated antibacterial activity against methicillin-resistant Staphylococcus aureus R50 clinical isolate assessed as decrease in oxacillin MIC at 16 ug/ml after 20 to 24 hrs by CLSI method relative to control; format: functional
Staphylococcus aureus [10] = test: Potentiation of oxacillin-mediated antibacterial activity against methicillin-resistant Staphylococcus aureus R15 clinical isolate at 32 ug/ml after 20 to 24 hrs by CLSI method; format: functional
Staphylococcus aureus [11] = test: Potentiation of oxacillin-mediated antibacterial activity against methicillin-resistant Staphylococcus aureus R306 clinical isolate at 32 ug/ml after 20 to 24 hrs by CLSI method; format: functional
Staphylococcus aureus [12] = test: Antibacterial activity against methicillin-resistant Staphylococcus aureus ATCC 43300 after 20 to 24 hrs by CLSI method; format: functional
Staphylococcus aureus [13] = test: Potentiation of oxacillin-mediated antibacterial activity against methicillin-resistant Staphylococcus aureus R308 clinical isolate at 32 ug/ml after 20 to 24 hrs by CLSI method; format: functional
Staphylococcus aureus [14] = test: Potentiation of oxacillin-mediated antibacterial activity against methicillin-resistant Staphylococcus aureus R36 clinical isolate at 32 ug/ml after 20 to 24 hrs by CLSI method; format: functional
Staphylococcus aureus [15] = test: Potentiation of ceftazidime mediated antibacterial activity against methicillin-resistant Staphylococcus aureus ATCC 43300 assessed as decrease in ceftazidime MIC at 32 ug/ml by checkerboard method relative to control; format: functional
HEK293 = test: Cytotoxicity against HEK293 cells assessed as cell viability at 8 to 128 ug/ml by MTS assay; format: cell-based; settings: human
Staphylococcus aureus [16] = test: Potentiation of oxacillin-mediated antibacterial activity against methicillin-resistant Staphylococcus aureus R313 clinical isolate at 32 ug/ml after 20 to 24 hrs by CLSI method; format: functional
Staphylococcus aureus [17] = test: Potentiation of cefmetazole-mediated antibacterial activity against methicillin-resistant Staphylococcus aureus ATCC 43300 assessed as decrease in cefmetazole MIC at 32 ug/ml by checkerboard method relative to control; format: functional
Staphylococcus aureus [18] = test: Potentiation of cefoperazone mediated antibacterial activity against methicillin-resistant Staphylococcus aureus ATCC 43300 assessed as decrease in cefoperazone MIC at 32 ug/ml by checkerboard method relative to control; format: functional
Staphylococcus aureus [19] = test: Potentiation of oxacillin-mediated antibacterial activity against methicillin-resistant Staphylococcus aureus ATCC 43300 assessed as decrease in oxacillin MIC at 32 ug/ml by checkerboard method relative to control; format: functional
Staphylococcus aureus [20] = test: Potentiation of cefoxitin-mediated antibacterial activity against methicillin-resistant Staphylococcus aureus ATCC 43300 assessed as decrease in cefoxitin MIC at 32 ug/ml by checkerboard method relative to control; format: functional
Staphylococcus aureus [21] = test: Potentiation of cefotaxime mediated antibacterial activity against methicillin-resistant Staphylococcus aureus ATCC 43300 assessed as decrease in cefotaxime MIC at 32 ug/ml by checkerboard method relative to control; format: functional
Staphylococcus aureus [22] = test: Potentiation of cephalothin-mediated antibacterial activity against methicillin-resistant Staphylococcus aureus ATCC 43300 assessed as decrease in cephalothin MIC at 32 ug/ml by checkerboard method relative to control; format: functional
Staphylococcus aureus [23] = test: Potentiation of oxacillin-mediated antibacterial activity against methicillin-resistant Staphylococcus aureus R36 clinical isolate assessed as decrease in oxacillin MIC at 32 ug/ml after 20 to 24 hrs by CLSI method relative to control; format: functional
Staphylococcus aureus [24] = test: Potentiation of ceftriaxone mediated antibacterial activity against methicillin-resistant Staphylococcus aureus ATCC 43300 assessed as decrease in ceftriaxone MIC at 32 ug/ml by checkerboard method relative to control; format: functional
Staphylococcus aureus [25] = test: Potentiation of oxacillin-mediated antibacterial activity against methicillin-resistant Staphylococcus aureus R302 clinical isolate assessed as decrease in oxacillin MIC at 32 ug/ml after 20 to 24 hrs by CLSI method relative to control; format: functional
Staphylococcus aureus [26] = test: Potentiation of oxacillin-mediated antibacterial activity against methicillin-resistant Staphylococcus aureus R314 clinical isolate at 32 ug/ml after 20 to 24 hrs by CLSI method; format: functional
Staphylococcus aureus [27] = test: Potentiation of oxacillin-mediated antibacterial activity against methicillin-resistant Staphylococcus aureus R313 clinical isolate assessed as decrease in oxacillin MIC at 32 ug/ml after 20 to 24 hrs by CLSI method relative to control; format: functional
Staphylococcus aureus [28] = test: Antibacterial activity against methicillin-resistant Staphylococcus aureus ATCC 43300 assessed as change in bacterial surface at 32 ug/ml after 4 hrs by scanning electron microscopic analysis; format: functional, organism-based
Staphylococcus aureus [29] = test: Antibacterial activity against methicillin-resistant Staphylococcus aureus ATCC 43300 assessed as growth inhibition at 32 ug/ml measured up to 24 hrs by time kill assay; format: functional, organism-based
Staphylococcus aureus [30] = test: Potentiation of oxacillin-mediated antibacterial activity against methicillin-resistant Staphylococcus aureus ATCC 43300 assessed as decrease in oxacillin MIC at 32 ug/ml after 20 to 24 hrs by CLSI method relative to control; format: functional
Staphylococcus aureus [31] = test: Potentiation of carbenicillin-mediated antibacterial activity against methicillin-resistant Staphylococcus aureus ATCC 43300 assessed as decrease in carbenicillin MIC at 32 ug/ml by checkerboard method relative to control; format: functional
Staphylococcus aureus [32] = test: Potentiation of oxacillin-mediated antibacterial activity against methicillin-resistant Staphylococcus aureus ATCC 43300 assessed as growth inhibition at 32 ug/ml after 24 hrs by epsilometer test; format: functional, organism-based

CCCCCCCCCCCCOCc1cn([C@@H]2O[C@H](CO)[C@@H](O)[C@H](O)[C@H]2O)nn1
MIC (Staphylococcus aureus [1]): 4 µg/mL | MIC (Staphylococcus aureus [2]): 64 µg/mL | Activity (MEF): Non-toxic | fold change (FC) (Staphylococcus aureus [3]): <=256 | MIC (Staphylococcus aureus [4]): 1 µg/mL | fold change (FC) (Staphylococcus aureus [5]): <=256 | MIC (Staphylococcus aureus [6]): < 1 µg/mL | Activity (Staphylococcus aureus [7]): Active | MIC (Staphylococcus aureus [8]): 2 µg/mL | MIC (Staphylococcus aureus [9]): 8 µg/mL | MIC (Staphylococcus aureus [10]): 64 µg/mL | MIC (Staphylococcus aureus [11]): 32 µg/mL | MIC (Staphylococcus aureus [12]): 256 µg/mL (≈ 596 µM) | MIC (Staphylococcus aureus [13]): 256 µg/mL | MIC (Staphylococcus aureus [14]): 8 µg/mL | fold change (FC) (Staphylococcus aureus [15]): <=256 | Activity (HEK293): Non-toxic | MIC (Staphylococcus aureus [16]): 8 µg/mL | fold change (FC) (Staphylococcus aureus [17]): <=256 | fold change (FC) (Staphylococcus aureus [18]): <=256 | fold change (FC) (Staphylococcus aureus [19]): <=256 | fold change (FC) (Staphylococcus aureus [20]): <=256 | fold change (FC) (Staphylococcus aureus [21]): <=256 | fold change (FC) (Staphylococcus aureus [22]): <=256 | MIC (Staphylococcus aureus [23]): 8 µg/mL | fold change (FC) (Staphylococcus aureus [24]): <=256 | MIC (Staphylococcus aureus [25]): 4 µg/mL | MIC (Staphylococcus aureus [26]): 16 µg/mL | MIC (Staphylococcus aureus [27]): 1 µg/mL | Activity (Staphylococcus aureus [28]): inactive | growth inhibition (GI) (Staphylococcus aureus [29]): inactive | fold change (FC) (Staphylococcus aureus [30]): 128 | fold change (FC) (Staphylococcus aureus [31]): <=256 | growth inhibition (GI) (Staphylococcus aureus [32]): Active
